For the assay, the system named is E. coli isolate CHP-04-002EC. Briefly: MIC against the E. coli test isolate. The format is cell-based. The note with it: stated as 1×MIC. Here is the method: Growth inhibition assays were performed using the Gram negative E. coli isolate CHP-04-002EC obtained from Laboratory Specialists, Inc. (Westlake, Ohio). […] Untreated bacterial culture served as growth control. At 4, 8, 12 and 24 hrs post-application, the cultures were serially diluted, plated and allowed to grow overnight. Colony forming units (CFU) were determined by counting the number of newly grown colonies and multiplying by the dilution factor.

For one substance, MIC results are on record in patent US20090253633A1, “Novel Combinations of DNAK Inhibitors With Known Antibacterial Agents” (priority 2005, published 2009).

Bridges are numbered along the chain shown (N, C = ends). Roman numbers before positions name the chains, in order. [ ]: non-standard residue; d: D form. NMeR = CN[C@@H](CCCNC(=N)N)C(=O)O; Api = NC1(C(=O)O)CCNCC1; Dab = NCC[C@H](N)C(=O)O

Turning to “I: H-[Api]DKGSYLPRPTPPRPIYN[NMeR]N[Dab]-NH2 / II: H-[Api]DKGSYLPRPTPPRPIYN[NMeR]N (amide I:21-II:C) [CHP-105]”, the MIC (in general, the least concentration at which growth counts as inhibited) was determined as 64 µg/mL.
